# Where two headings read alike, the source gives them in different places.
# What was measured:
# Stability in mice plasma = assay type: in vitro ADME
# [1] = tested on: Ovcar3 ovarian cancer cells; assay: Chamber cell migration (transwell) assay; assay type: cell-based, human; conditions: for IC50: OVCAR-3; for inhibiting the migration of human ovarian cancer cells in the transwell assay: Ovcar3
# Procedure: Cell migrations of Ovcar3 ovarian cancer cells were assayed with 8 μm of microporous 6.5-mm transwell plates (Corning). 100 wl of 5×10^4 cells in serum-free RPMI1640 medium containing 0.5% BSA were added to the upper chamber and 600 μl of medium with 10% fetal bovine serum was added to the lower chamber. Transwells were incubated for 12 hours with following concentrations of chemical compounds in both upper and lower chambers (1 nM, 10 nM, 100 nM 1 μM, 10 μM). Cells on the inside of the transwell inserts were removed with a cotton swab, and cells on the under side of the insert were fixed and stained. Photographs of three random regions were taken and the number of cells was counted to calculate the average number of cells that had transmigrated. Data shown is the average of at least three experiments.
# Ovcar3 tumor cells = assay: Wound healing assay; assay type: cell-based, human; conditions: 250 nM
# Procedure: The tumor cells (Ovcar3) were seeded into 24-multiwell plates (Becton-Dickinson) and cultivated until the cells formed a confluent monolayer. Wounds were set by horizontally scratching the monolayer with a sterile pipette tip. The cells were thereafter washed twice with Phosphate Buffered Saline (PBS) to remove detached cells. Growth media was then added containing 250 nM of the chemical compounds (21, 22, and 30) and incubated at 37° C. The cells were photographed at the beginning of the experiment and after 24 to assess the progression of cell migration into the wound.
# [2] = tested on: human ovarian tumor cell line OVCAR3; assay: In vivo metastatic model (ovarian xenograph, luciferase tumor imaging); set-up: species or system mouse; conditions: treated mice
# Description: The human ovarian tumor cell line OVCAR3 was transduced with a triple fusion gene HSV-TK/eGFP/FLuc, expressing thymidine kinase, enhanced green fluorescence protein and firefly luciferase. Whole animal imaging by luciferase bioluminescence (FIG. 5A), allowed identification and quantification of disseminated tumor. We quantified the tumor burden in each organ, by sacrificing the mouse shortly after luciferin injecting and imaging of the dissected organs (lung, liver and spleen) (FIG. 5B). In all instances tumor engraftment was initiated with 1−5×10^7 cells and the recipients received 3 Gy irradiation 10 days before tumor engraftment. These tumor cells generated bulky omental metastases with diffuse microscopic peritoneal carcinomatosis causing ascites (FIG. 5A) with, significant pleural effusion and liver, lung and paraaortic metastases (FIG. 6).
# human tumor cells [3] = conditions: Nakae et al., J. Antibiot., 2001; cited from earlier work
# human tumor cells [4] = conditions: Nakae et al., J. Antibiot., 2001; cited from earlier work; remark: listed apart in the source
# [5] = Homo sapiens, Ovcar3 cells, 12 hours, read-out: IC50, transwell assay
# [6] = after 12h, human ovarian cancer cells, read-out: concentration at which 50% of the migration was inhibited in the transwell assay
smiles,measurement,setting,value
CO[C@H]1/C=C/CCCCCOC/C(C)=C\[C@@H](C)[C@@H]1O [compound 61],stability in mice plasma,Stability in mice plasma,stable
COCO[C@H]1[C@H](C)COC(=O)CCCC/C=C/[C@@H]1OC [Compound 21],IC50,[1]; [5],75 ± 6.5 nM
same,IC50,[1]; [6],75 nM
same,inhibiting the migration of human ovarian cancer cells in the transwell assay,[1],highly potent
same,closure of the scar in the wound healing assay,Ovcar3 tumor cells,inhibited the closure of the scar
CO[C@H]1/C=C/CC/C=C/COC/C(C)=C\[C@@H](C)[C@@H]1O [compound 57],IC50,[1]; [5],180 nM
CO[C@H]1[C@H](C)/C=C(/C)COCCCCC/C=C/[C@@H]1OC [compound 62],IC50,[1]; [5],180 nM
CO[C@H]1/C=C/CC/C=C/COC[C@@H](C)[C@@H]1O [Compound 30],IC50,[1]; [5],27 ± 5.8 nM
same,IC50,[1]; [6],27 nM
same,inhibiting the migration of human ovarian cancer cells in the transwell assay,[1],highly potent
same,closure of the scar in the wound healing assay,Ovcar3 tumor cells,inhibited the closure of the scar
same,"tumor metastasis, Luciferase tumor imaging",[2],significant inhibition of tumor metastasis
CO[C@H]1/C=C/CCCCC(=O)OC[C@@H](C)[C@@H]1O [Compound 22],IC50,[1]; [5],738 ± 267 nM
CO[C@H]1/C=C/CC/C=C/C(=O)O[C@H]([C@H](C)C(=O)CCCC2CC(=O)NC(=O)C2)/C(C)=C\[C@@H](C)[C@@H]1O [Migrastatin],migration of human tumor cells,human tumor cells [3],inhibit
same,anchorage-independent growth of human tumor cells,human tumor cells [4],inhibit
